Patent US20110105326A1, “Method for Enhancing the Rainfastness of Glyphosate” (BASF SE, priority 2008, published 2011)

Assays:
Format in all cases: in vivo
[1] = system: Echinochloa colonum (ECHCO); assay: herbicidal action with/without simulated rainfall after treatment, Echinochloa colonum; details: 1500 g/ha diuron, 1080 g/ha glyphosate; for herbicidal action against Echinochloa colonum (ECHCO): control without simulated rainfall, Example 15.1
Method: (§1) The enhancement of the rainfastness of glyphosate was determined via the herbicidal activity of the mixture comprising glyphosate and the respective rainfastness enhancing herbicidal component B as well as of the single herbicidal components in relation to simulated rainfall at different time intervals.
(§2) The evaluation of the damage caused by the method and the compositions the according to the present invention and the single herbicidal components was carried out using a scale from 0 to 100%, compared to the untreated control plots. Here, 0 means no damage and 100 means complete destruction of the plants of a respective weed or crop species.
(§3) The application was performed with a fixed spayer system with air pressurization and with a tank spray volume of two liters. The speed of the spray device over the plants was adjusted for a spray volume of 200 I/ha. The spray device was a spray barr with four nozzles from the type Teejet XR 11002VS with a space of 50 cm between each nozzle.
(§4) The application was performed at a weed stage of 6 to 8 leaves. After the application of the formulated herbicides the leaves were washed through rain of 20 mm using a fixed rain simulator system at following time interval: 15 min, 30 min, 1, 2, 3, 4 and 6 hours after treatment.

[2] = system: Ipomoea grandifolia (IPOGR); assay: herbicidal action with/without simulated rainfall after treatment, Ipomoea grandifolia; details: 1500 g/ha diuron, 1080 g/ha glyphosate; for herbicidal action against Ipomoea grandifolia (IPOGR): control without simulated rainfall, Example 16.1
Method: as §1, §2, §3, §4

[3] = system: Brachiaria decumbens (BRADE); assay: herbicidal action with/without simulated rainfall after treatment, Brachiaria decumbens; details: 1500 g/ha diuron, 1080 g/ha glyphosate; for herbicidal action against Brachiaria decumbens (BRADE): control without simulated rainfall, Example 17.1
Method: as §1, §2, §3, §4

**Q.** `CN(C)C(=O)Nc1ccc(Cl)c(Cl)c1` [Diuron, diuron] was tested. Which “herbicidal action against Echinochloa colonum (ECHCO)” value (from here on “herbicidal action … (ECHCO)”) ([1]; 1 DAA) did it give?
**A.** 0

**Q.** And the “herbicidal action … (ECHCO)” value ([1]; 2 DAA)?
**A.** 0

**Q.** And the “herbicidal action … (ECHCO)” value ([1]; 3 DAA)?
**A.** 2.66

**Q.** What about the “herbicidal action … (ECHCO)” value ([1]; 7 DAA) of the same compound?
**A.** 61

**Q.** What about the “herbicidal action against ECHCO” value ([1]; simulated rainfall 30 min after treatment, 1 DAA, Example 15.2) of the same compound?
**A.** 0

**Q.** And the “herbicidal action against ECHCO” value ([1]; simulated rainfall 30 min after treatment, 2 DAA, Example 15.2)?
**A.** 0

**Q.** What about the “herbicidal action against ECHCO” value ([1]; simulated rainfall 30 min after treatment, 3 DAA, Example 15.2) of the same compound?
**A.** 6

**Q.** And the “herbicidal action against ECHCO” value ([1]; simulated rainfall 30 min after treatment, 7 DAA, Example 15.2)?
**A.** 75.33

**Q.** What about the “herbicidal action against ECHCO” value ([1]; simulated rainfall 2 hours after treatment, 1 DAA, Example 15.3) of the same compound?
**A.** 0

**Q.** What about the “herbicidal action against ECHCO” value ([1]; simulated rainfall 2 hours after treatment, 2 DAA, Example 15.3) of the same compound?
**A.** 0

**Q.** What about the “herbicidal action against ECHCO” value ([1]; simulated rainfall 2 hours after treatment, 3 DAA, Example 15.3) of the same compound?
**A.** 1.66

**Q.** What about the “herbicidal action against ECHCO” value ([1]; simulated rainfall 2 hours after treatment, 7 DAA, Example 15.3) of the same compound?
**A.** 58.33

**Q.** What about the “herbicidal action against Ipomoea grandifolia (IPOGR)” value (“herbicidal action … (IPOGR)” for short) ([2]; 1 DAA) of the same compound?
**A.** 0

**Q.** What about the “herbicidal action … (IPOGR)” value ([2]; 2 DAA) of the same compound?
**A.** 0

**Q.** And the “herbicidal action … (IPOGR)” value ([2]; 3 DAA)?
**A.** 1.33

**Q.** And the “herbicidal action … (IPOGR)” value ([2]; 7 DAA)?
**A.** 7.33

**Q.** What about the “herbicidal action against IPOGR” value ([2]; simulated rainfall 15 min after treatment, 1 DAA, Example 16.2) of the same compound?
**A.** 0

**Q.** And the “herbicidal action against IPOGR” value ([2]; simulated rainfall 15 min after treatment, 2 DAA, Example 16.2)?
**A.** 1

**Q.** And the “herbicidal action against IPOGR” value ([2]; simulated rainfall 15 min after treatment, 3 DAA, Example 16.2)?
**A.** 3.33

**Q.** And the “herbicidal action against IPOGR” value ([2]; simulated rainfall 15 min after treatment, 7 DAA, Example 16.2)?
**A.** 21

**Q.** And the “herbicidal action against IPOGR” value ([2]; simulated rainfall 30 min after treatment, 1 DAA, Example 16.3)?
**A.** 0

**Q.** What about the “herbicidal action against IPOGR” value ([2]; simulated rainfall 30 min after treatment, 2 DAA, Example 16.3) of the same compound?
**A.** 0

**Q.** What about the “herbicidal action against IPOGR” value ([2]; simulated rainfall 30 min after treatment, 3 DAA, Example 16.3) of the same compound?
**A.** 3

**Q.** And the “herbicidal action against IPOGR” value ([2]; simulated rainfall 30 min after treatment, 7 DAA, Example 16.3)?
**A.** 16.66

**Q.** And the “herbicidal action against IPOGR” value ([2]; simulated rainfall 2 hours after treatment, 1 DAA, Example 16.4)?
**A.** 0

**Q.** And the “herbicidal action against IPOGR” value ([2]; simulated rainfall 2 hours after treatment, 2 DAA, Example 16.4)?
**A.** 0

**Q.** What about the “herbicidal action against IPOGR” value ([2]; simulated rainfall 2 hours after treatment, 3 DAA, Example 16.4) of the same compound?
**A.** 0.33

**Q.** What about the “herbicidal action against IPOGR” value ([2]; simulated rainfall 2 hours after treatment, 7 DAA, Example 16.4) of the same compound?
**A.** 11.66

**Q.** What about the “herbicidal action against IPOGR” value ([2]; simulated rainfall 6 hours after treatment, 1 DAA, Example 16.5) of the same compound?
**A.** 0

**Q.** And the “herbicidal action against IPOGR” value ([2]; simulated rainfall 6 hours after treatment, 2 DAA, Example 16.5)?
**A.** 1

**Q.** And the “herbicidal action against IPOGR” value ([2]; simulated rainfall 6 hours after treatment, 3 DAA, Example 16.5)?
**A.** 2

**Q.** What about the “herbicidal action against IPOGR” value ([2]; simulated rainfall 6 hours after treatment, 7 DAA, Example 16.5) of the same compound?
**A.** 25.55

**Q.** And the “herbicidal action against Brachiaria decumbens (BRADE)” value (“herbicidal action … (BRADE)” for short) ([3]; 1 DAA)?
**A.** 0

**Q.** What about the “herbicidal action … (BRADE)” value ([3]; 2 DAA) of the same compound?
**A.** 0

**Q.** What about the “herbicidal action … (BRADE)” value ([3]; 3 DAA) of the same compound?
**A.** 0

**Q.** And the “herbicidal action … (BRADE)” value ([3]; 7 DAA)?
**A.** 11

**Q.** And the “herbicidal action … (BRADE)” value ([3]; 14 DAA)?
**A.** 78.33

**Q.** What about the “herbicidal action against BRADE” value ([3]; simulated rainfall 2 hours after treatment, 1 DAA, Example 17.2) of the same compound?
**A.** 0

**Q.** What about the “herbicidal action against BRADE” value ([3]; simulated rainfall 2 hours after treatment, 2 DAA, Example 17.2) of the same compound?
**A.** 0

**Q.** And the “herbicidal action against BRADE” value ([3]; simulated rainfall 2 hours after treatment, 3 DAA, Example 17.2)?
**A.** 0

**Q.** What about the “herbicidal action against BRADE” value ([3]; simulated rainfall 2 hours after treatment, 7 DAA, Example 17.2) of the same compound?
**A.** 56

**Q.** And the “herbicidal action against BRADE” value ([3]; simulated rainfall 2 hours after treatment, 14 DAA, Example 17.2)?
**A.** 100

**Q.** What about the “herbicidal action against BRADE” value ([3]; simulated rainfall 6 hours after treatment, 1 DAA, Example 17.3) of the same compound?
**A.** 0

**Q.** And the “herbicidal action against BRADE” value ([3]; simulated rainfall 6 hours after treatment, 2 DAA, Example 17.3)?
**A.** 0

**Q.** What about the “herbicidal action against BRADE” value ([3]; simulated rainfall 6 hours after treatment, 3 DAA, Example 17.3) of the same compound?
**A.** 0

**Q.** And the “herbicidal action against BRADE” value ([3]; simulated rainfall 6 hours after treatment, 7 DAA, Example 17.3)?
**A.** 30

**Q.** And the “herbicidal action against BRADE” value ([3]; simulated rainfall 6 hours after treatment, 14 DAA, Example 17.3)?
**A.** 100
